Converted amounts (≈) assume the structure as drawn.
Columns and labels:
DLD-1 BRCA2-/- cells = assay: DLD-1 BRCA2-/- cell proliferation assay (CellTiter-Glo, 10 days incubation); assay type: cell-based; details: Homo sapiens, 240 h, DLD-1 BRCA2-/- cell line, total incubation period of 10 days, read-out: DLD1 BRCA2^-/- IC50
Description: The anti-proliferative effect of the compounds on the human colorectal adenocarcinoma cell line DLD-1 BRCA2^-/- method.
• DLD-1 (purchased from ATCC, Cat. No.: CCL-221, Batch No.: 70033255); • RPMI1640 (purchased from Invitrogen, Cat. No.: 11875-085); • 0.25% Trypsin-EDTA (purchased from Invitrogen, Cat. No.: 25200-072); • Penicillin-Streptomycin solution (purchased from Hyclone, Cat. No.: SV30010); • FBS (purchased from BI, Cat. No.: 04-002-1A); • DMSO (purchased from Sigma, Cat. No.: D4540-1L); • 96-well plate (purchased from Corning, Cat. No.: CLS3903); • CellTiter-Glo reagent (purchased from Promega, Cat. No.: G7558).
The anti-proliferative effect of the compounds on a human colorectal adenocarcinoma cell line was evaluated using an ATP quantification method, wherein the measured activity correlates well with the number of viable cells. The genetically edited cell line DLD-1 BRCA2^-/- was cultured in RPMI 1640 medium (Invitrogen, 11875-085) supplemented with 10% (v/v) fetal bovine serum (BI, 04-002-1A). The cell line was cultured according to the standard instructions of the American Type Culture Collection (ATCC) and identified via short tandem repeat (STR) genotyping.
In the proliferation assay, cells were harvested and resuspended in cell culture medium. Cell density was determined using a cell counter. An appropriate volume of cell suspension was aspirated from the centrifuge tube to prepare a plating working solution (150 cells/100 µL for the DLD-1 BRCA2^-/- cell line). 100 µL of the cell suspension was seeded into each well of a 96-well plate (Corning, 3603) and incubated overnight in an incubator. The diluted test compound solutions were added to the wells. On the fourth and seventh days of compound incubation, the medium was replaced with fresh culture medium, and the compounds were re-administered, for a total incubation period of 10 days. Following incubation, the cell culture plates were removed and equilibrated to room temperature. 100 µL of CellTiter-Glo (Promega, G7558) was added to each well, and the plate was incubated at room temperature for 30 minutes. Data were read using a microplate reader (PerkinElmer, Enspire) in 96-well luminescence mode. Data analysis, curve fitting, and reporting were performed using the dose-response one-site 205 model of IDBS XL fit. Table 2: Proliferation inhibitory activity of compounds against DLD-1 BRCA2-/- cells

[1] = Thermodynamic solubility determination in FaSSIF; assay type: physicochemical; details: thermodynamic from solid, FaSSIF pH 6.5, 37°C
Description: • (1) The control compound, diclofenac sodium, was purchased from Sigma. • (2) FaSSIF, FeSSIF & FaSSGF (FFF02) powders were purchased from Biorelevant. • (3) 1.5 mL flat-bottom glass vials (purchased from local suppliers); PTFE/silicone septa (BioTech Solutions); PTFE-coated stir bars (V&P Scientific); MultiScreenHTS HV (0.45 µm) 96-well plates (Millipore, MSHVN4510 or MSHVN4550); Eppendorf Thermomixer Comfort; Vacuum Manifold ORVMN96 (Orochem).
0.420 g of NaOH, 3.438 g of NaH2PO4, and 6.186 g of NaCl were dissolved in approximately 900 mL of ultrapure water, and the pH of the solution was adjusted to 6.5 using 1N NaOH or 1N HCl. The solution was then diluted to 1000 mL with ultrapure water at room temperature.
2.240 g of FaSSIF, FeSSIF, and FaSSGF powder was added to approximately 500 mL of Buffer A. The mixture was stirred until the powder was completely dissolved. The solution was then diluted to 1000 mL with Buffer A at room temperature.
The solution was allowed to stand for 2 hours. The solution became slightly opalescent and was ready for use at that point. Note: it was to be used within 48 hours at room temperature or within 24 hours at 37°C.
(2) The test compounds and control compounds were weighed for solubility measurement (approximately 1.0 mg each in three separate 1.5 mL glass vials).
(3) For each compound, one vial served as a standard, and the other two vials were used for solubility measurement in duplicate.
(4) Each compound was placed sequentially into its appropriate 96-well plate. One plate served as the standard plate and the other as the sample plate.
(5) Based on the mass of the sample in each vial on the sample plate, an appropriate volume (approximately 1000 µL) of FaSSIF was added to each vial of the solubility sample plate using a pipette. […]
All calculations were performed using Microsoft Excel. Analysis and quantification of the sample filtrates were completed via LC-MS/MS by qualitative and quantitative comparison against the peaks of standards with known concentrations. […]

IC50 (DLD-1 BRCA2-/- cells) [nM]	solubility ([1]; 24 hours) [µg/mL]	solubility at 24 h [1] [µg/mL]	SMILES
21	31 (≈ 64.9 µM)		COc1cnc(Cl)cc1-c1cc(C)ncc1C(=O)Nc1nnc(OC[C@H]2COCCO2)s1 [Ref. 1, reference compound]
24		669 (≈ 1310 µM)	[2H]C([2H])([2H])O[C@@H](C)c1ccc(CS(=O)(=O)NC(=O)c2ccc(C([2H])([2H])[2H])cc2-c2cc(C(F)F)ncc2OC)cc1 [cpd-16, (S)-2-(2-(Difluoromethyl)-5-methoxypyridin-4-yl)-N-((4-(1-(methoxy-d3)ethyl)benzyl)sulfonyl)-4-(methyl-d3)benzamide]
16		511 (≈ 1030 µM)	[2H]C([2H])([2H])O[C@@H](C)c1ccc(CS(=O)(=O)NC(=O)c2ccc(C([2H])([2H])[2H])cc2-c2cc(Cl)ncc2OC)cc1 [cpd-17, (S)-2-(2-Chloro-5-methoxypyridin-4-yl)-N-((4-(1-(methoxy-d3)ethyl)benzyl)sulfonyl)-4-(methyl-d3)benzamide]
